This is an account of results in patent US4672063A, “Antiallergic 5-alkyl-1-phenyl-2-piperazinoalkylpyrazolin-3-one compounds” (Kali-Chemie Pharma GmbH, priority 1984, dated 1987).

Usually LD50 stands for the dose expected to kill half of the subjects tested. A lower LD50 goes with greater toxicity. The ED50 is the midpoint of the dose-response relation. For orientation: EC50 means the concentration giving half of the maximal effect.

Series [1] is described as follows: Acute 8-day toxicity, single i.p. application to male mice (LD50). The following applies: in vivo, ip, mouse i.p., 8 days. Here is the method:
The acute 8-day toxicity is determined after a single application i.p. to male mice (body weight 18 to 22 g). The mortality is noted for 8 days. The results are calculated as LD50 values, i.e. the dose which kills 50% of the animals.

Series [2] has as its system serotonin induced anaphylactoidal reaction. The series is described as follows: Inhibition of serotonin-induced anaphylactoid cutaneous reaction in the rat, test substance p.o. The following applies: po, 1 μg serotonin intradermally, read-out: ED50 inhibiting effect, serotonin induced anaphylactoidal reaction. The format is in vivo, rat (Sprague-Dawley). Here is the method: (§1) 2. Determining the inhibition of passive cutaneous anaphylaxis (PCA) and the inhibition of anaphylactoid cutaneous reactions induced by histamine and by serotonin.
(§2) The determination of the inhibition of passive cutaneous anaphylaxis and the anaphylactoid cutaneous reactions induced by histamine and by serotonin, are carried out, as set forth below, according to the method of Martin and Baggiolini (Naunyn-Schmeiedeberg's Archives of Pharmacology 316 (1981) 186-189).
(§3) For passive sensitizing against ovalbumin, male Sprague-Dawley rates (body weight 150 to 165 g) are injected intradermally on a shaved part of the back with 0.05 ml of a 1:2.5 dilution of antiovalbumin serum, rich in IgE, in physiological sodium chloride solution.
(§4) 24 hours after the sensitizing, solutions of the test substances are administered orally to the rats. For comparison, a control group receives only the solvent.
(§5) To trigger the histamine-induced and serotonin-induced anaphylactoid reactions of the skin, the animals are injected intradermally 30 minutes later on a second shaved part of the back with a solution of 40 μg histamine in 0.05 ml physiological sodium chloride solution and on a third shaved part of the back with a solution of 1 μg serotonin in 0.05 physiological sodium chloride solution.
(§6) Immediately thereafter 1.25 mg (-~8 mg/kg) ovalbumin to trigger the anaphylactic reaction, and 4 mg (-~26.4 mg/kg) of a blue dye dissolved in 0.5 ml phosphate-buffered physiological sodium chloride solution are administered i.v. to the animals.
(§7) After 30 minutes the animals are killed, the skin is removed and in the individual blue patches the quantity of dye contained therein is determined separately. According to the method of Mordelet-Danbrine et al (Therapie 29 (1974) 851-862) the dye is extracted from the individual patches in each case with 2.5 ml dimethylformamide at a temperature of 37° C. for 4 days and the quantity of dye obtained in each case in the extraction solution is determined by spectrophotometric measurement. The doses of the test substances which cause a 50% reduction in the dye concentration compared with the control group are calculated as ED50 values.

Series [3] relates to passive cutaneous anaphylaxis. Kind of series: Inhibition of passive cutaneous anaphylaxis (PCA) in the rat, test substance p.o. The format is in vivo, rat (Sprague-Dawley). The following applies: po, 50% reduction in dye concentration vs control, read-out: ED50 inhibiting effect, passive cutaneous anaphylaxy. Here is the method: as §1
For the preparation of an antiovalbumin serum, rich in IgE, which is used in the test, according to the method of Lehrer et al (J. Immunol. 116, (1976) 178-182) and Pauwels et al (Ann. Immunol. 230C., (1979), 49-58), Sprague-Dawley rats are sensitized by i.p. injection of 1 mg ovalbumin and 1 ml Bordetella pertussis suspension (vaxicoq, Merieux 3×10^10 organisms/ml). After 20 days the animals are given an injection of 10 mg ovalbumin in the same way, but without any additive. After a further 4 days, blood is removed from the animals and the blood is centrifuged. The antiserum thus obtained is stored at -20° C. and adjusted according to the method of Goose et al (Immunology 16 (1968) 749-760).
as §2, §3, §4, §6, §7

Series [4] relates to histamine-induced anaphylactoidal reaction. The series is described as follows: Inhibition of histamine-induced anaphylactoid cutaneous reaction in the rat, test substance p.o. Type of series: in vivo, rat (Sprague-Dawley). The settings on record: po, 40 μg histamine intradermally, read-out: ED50 inhibiting effect, histamine-induced anaphylactoidal reaction. Here is the method:
as §1, §2, §3, §4, §5, §6, §7

The test system of series [5] is peritonal mast cells of rats. Kind of series: In vitro inhibition of anaphylactically caused histamine release from peritonal mast cells of rats. The format is cell-based, rat (Sprague-Dawley). The following applies: Rattus norvegicus, Mast cell; ovalbumin trigger, 1 minute preincubation at 37° C.; read-out: EC50 in vitro inhibiting effect with respect to anaphylactically caused histamine release from mast cells of the rat. Here is the method: 3. Determining the inhibiting effect in vitro on the release of histamine, caused anaphylactically, from peritonal mast cells of rats.
In order to obtain the peritonal mast cells, Sprague-Dawley rats are killed by inhalation of ether and immediately after cessation of breathing has occurred, 15 ml of a cold solution of 1 mg/ml human serum albumin in phosphate-buffered sodium chloride solution are injected into the abdominal cavity. The peritonal fluid is then removed and the mast cells are separated therefrom by centrifuging and are suspended in phosphate-buffered sodium chloride solution, whereafter the suspension is adjusted to a mast cell concentration of 5×10^5 per ml.
The mast cell suspension, divided up into samples each of 100 μl, is introduced into test-tubes and each sample, for passive sensitizing, is mixed with 100 μl of a 1:10 dilution of IgE-rich antiovalbumin serum in physiological sodium chloride solution (prepared according to the method described above) and is incubated for 30 minutes at a temperature of 37° C. (water bath). For the removal of unbonded IgE, the mast cells are then washed with 2 ml phosphate-buffered sodium chloride solution, centrifuged, and the supernatant fluid is discarded. Then the mast cells are incubated for 1 minute at 37° C. with 200 μl of a solution of the test substance in phosphate-buffered sodium chloride solution. A control group is only incubated with the same quantity of phosphate-buffered sodium chloride solution which is free of test substance.
After an incubation period of 3 minutes at 37° C., the reaction is stopped by rapid cooling in an ice bath. Then centrifuging takes place, the supernatant fluid is decanted and the histamine content therein is determined directly, without further extraction, spectrofluorimetrically according to the method of Shore (J. Pharmac. Exp. Ther. 127 (1959) 182-186).
For the extraction of the residual histamine still contained in the mast cells of the undecanted material, the latter is mixed with 2 ml phosphate-buffered sodium chloride solution and the suspension is heated in a boiling water bath. Then centrifuging takes place, the supernatant fluid is decanted and therein the residual histamine extracted from the mast cells is determined spectrofluorimetrically.
For each sample, the quantity of the released histamine is calculated as percentage proportion of the overall quantity of histamine (=total of released histamine and residual histamine retained in the mast cells).
The EC50 values are calculated to be those molar concentrations of the test substances in the respective test solutions which produce a 50% inhibition of the histamine release compared to the control group.

Each structure is given as a SMILES string. A value given as a limit tells only on which side of the number the result lay.

With `Cc1ccc(-n2c(C)cc(=O)n2CCCN2CCN(c3cc(C)ccn3)CC2)cc1` [Example 55], the 50% lethal dose (LD50) at 192 h in series [1] amounted to 135 mg/kg. For the same molecule, the figures for the median effective dose (ED50) in series [2], in series [3] and in series [4] were 11.8 mg/kg, 7.26 mg/kg and 11.9 mg/kg, respectively.
The matching figures for `Cc1cc(=O)n(CCCN2CCN(c3ccccc3)CC2)n1-c1ccccc1` [Example 11]: 108 mg/kg, 10.2 mg/kg, 4.65 mg/kg and 10.1 mg/kg.
As for `Cc1ccnc(N2CCN(CCCn3c(=O)cc(C)n3-c3ccc([N+](=O)[O-])cc3)CC2)c1` [Example 2, 5-methyl-1-(4-nitrophenyl)-2-{3-[4-(4-methyl-pyrid-2-yl)-piperazin-1-yl]-propyl}-pyrazolin-3-one], the 50% lethal dose (LD50) at 192 h in series [1] was 90 mg/kg. Moreover, the ED50 in series [2] was determined as 2.7 mg/kg; in series [3], 1.9 mg/kg; in series [4] it was 1.75 mg/kg.
Consider `CCCc1cc(=O)n(CCCN2CCN(c3cc(C)ccn3)CC2)n1-c1ccccc1` [Example 13], for which the LD50 at 192 h in series [1] was 96 mg/kg. Also, the values for the 50% effective dose (ED50) in series [2], in series [3] and in series [4] were 1.87 mg/kg, 2.94 mg/kg and 5.48 mg/kg, respectively.
Regarding `COC(=O)c1ccccc1-n1c(C)cc(=O)n1CCCN1CCN(c2cc(C)ccn2)CC1` [Example 17], the median lethal dose (LD50) at 192 h in series [1] is 342 mg/kg. The median effective dose (ED50) in series [2] stood at 10.8 mg/kg; in series [3], 5 mg/kg; in series [4], 12.6 mg/kg.
The matching figures for `Cc1cc(=O)n(CCCN2CCN(c3ccccn3)CC2)n1-c1ccccc1` [Example 45]: 240 mg/kg, 8 mg/kg, 6.3 mg/kg and 11 mg/kg.
On the same counts, the results for `Cc1ccnc(N2CCN(CCCn3c(=O)cc(C)n3-c3ccc(C#N)cc3)CC2)c1` [Example 46] are 101 mg/kg, 8 mg/kg, 6.3 mg/kg and 2.8 mg/kg.
The molecule `Cc1ccnc(N2CCN(CCCn3c(=O)cc(C4CCCCC4)n3-c3ccccc3)CC2)c1` [Example 15] displayed an LD50 at 192 h in series [1] of 90 mg/kg. Besides, the ED50 in series [2] amounted to 1.7 mg/kg; in series [3], 1.9 mg/kg; in series [4], 4.4 mg/kg. Moreover, the concentration giving a half-maximal response (EC50) in series [5] was 14 µM.
On the same counts, the results for `O=c1cc(C2CCCCC2)n(-c2ccccc2)n1CCCN1CCN(c2ccc(F)cc2)CC1` [Example 49] are 96 mg/kg, 3.59 mg/kg, 4.9 mg/kg, 10.6 mg/kg and 57 µM.
In the case of `COc1ccc(N2CCN(CCCn3c(=O)cc(C)n3-c3ccc(C)cc3Cl)CC2)cc1` [Example 20], the EC50 in series [5] is 10 µM.
Turning to `Cc1ccnc(N2CCN(CCCn3c(=O)cc(C)n3-c3ccc(Cl)cc3)CC2)c1` [Example 18], in series [1], the LD50 at 192 h stood at 205 mg/kg. Further, the ED50 in series [2] turned out to be 6.2 mg/kg; in series [3], 4.7 mg/kg; in series [4] it was 6.6 mg/kg. For the same molecule, in series [5], the concentration for a half-maximal effect (EC50) turned out to be 230 µM.
For the molecule `COc1ccc(-n2c(C)cc(=O)n2CCCN2CCN(c3cc(C)ccn3)CC2)cc1OC` [Example 56], the LD50 at 192 h in series [1] is > 350 mg/kg. Further, the results for the 50% effective dose (ED50) in series [2], in series [3] and in series [4] were 6.29 mg/kg, 5.7 mg/kg and 3.85 mg/kg, respectively.
In series [1], `Cc1ccnc(N2CCN(CCCn3c(=O)cc(C)n3-c3ccc(O)cc3)CC2)c1` [Example 7, 5-methyl-1-(4-hydroxyphenyl)-2-{3-[4-(4-methyl-pyrid-2-yl)-piperazin-1-yl]-propyl}-pyrazolin-3-one] yielded an LD50 at 192 h of 178 mg/kg. The ED50 came to 13 mg/kg in series [2], 6.6 mg/kg in series [3] and 7.9 mg/kg in series [4].
`Cc1ccnc(N2CCN(CCCn3c(=O)cc(C4CCCC4)n3-c3ccccc3)CC2)c1` [Example 58] returned a median lethal dose (LD50) at 192 h in series [1] of 95 mg/kg. Further, the ED50 in series [2] came out at 1.41 mg/kg; in series [3], 1.17 mg/kg; in series [4] it was 10 mg/kg. Also, the concentration for a half-maximal effect (EC50) in series [5] turned out to be 120 µM.
With `CCCCCCc1cc(=O)n(CCCN2CCN(c3cc(C)ccn3)CC2)n1-c1ccccc1` [Example 26], in series [1], the LD50 at 192 h was determined as 72.5 mg/kg. For the same molecule, the ED50 in series [2] is 7.8 mg/kg; in series [3] it was 6.75 mg/kg; in series [4], 6.3 mg/kg. Also, the half-maximal effective concentration (EC50) in series [5] is 35 µM.
In the case of `COc1ccc(-n2c(C)cc(=O)n2CCCN2CCN(c3cc(C)ccn3)CC2)cc1` [Example 47], in series [1], the median lethal dose (LD50) at 192 h was 190 mg/kg. Moreover, the ED50 worked out at 6.8 mg/kg in series [2], 5.96 mg/kg in series [3] and 6.8 mg/kg in series [4].
With `O=c1cc(C2CC2)n(-c2ccccc2)n1CCCN1CCN(c2ccc(F)cc2)CC1` [Example 43], the ED50 was 3.25 mg/kg in series [2], 2.45 mg/kg in series [3] and 5.79 mg/kg in series [4].
As to `CCCc1cc(=O)n(CCCN2CCN(c3ccc(F)cc3)CC2)n1-c1ccc(Cl)c(Cl)c1` [Example 22], the EC50 in series [5] came out at 43 µM.
`CCc1cc(=O)n(CCCN2CCN(c3cc(C)ccn3)CC2)n1-c1ccc([N+](=O)[O-])cc1` [Example 38]: in series [1], the LD50 at 192 h came to 93 mg/kg. Besides, the ED50 worked out at 5.54 mg/kg in series [2], 3.18 mg/kg in series [3] and 3.88 mg/kg in series [4].
On the same counts, the results for `Cc1ccnc(N2CCN(CCCCn3c(=O)cc(C)n3-c3ccccc3)CC2)c1` [Example 4, 5-methyl-1-phenyl-2-{4-[4-(4-methyl-pyrid-2-yl)-piperazin-1-yl]-butyl}-pyrazolin-3-one] are 130 mg/kg, 5.9 mg/kg, 3.9 mg/kg and 7.98 mg/kg.
As for `CC(=O)c1ccc(-n2c(C)cc(=O)n2CCCN2CCN(c3cc(C)ccn3)CC2)cc1` [Example 44], in series [1], the LD50 at 192 h is 170 mg/kg. Also, the ED50 came to 8.9 mg/kg in series [2], 5.4 mg/kg in series [3] and 3.15 mg/kg in series [4].
As for `CCOc1ccc(-n2c(C)cc(=O)n2CCCN2CCN(c3cc(Cl)ccc3C)CC2)cc1` [Example 30], the concentration giving a half-maximal response (EC50) in series [5] was determined as 18 µM.
Take `COc1ccccc1-n1c(C)cc(=O)n1CCCN1CCN(c2cc(C)ccn2)CC1` [Example 21]: the 50% lethal dose (LD50) at 192 h in series [1] is 252 mg/kg. Also, the ED50 in series [2] is 8.3 mg/kg; in series [3], 7.1 mg/kg; in series [4] it was 5.1 mg/kg.
